Legend:
Assay type in all cases: in vivo
[1] = test system: female mosquitoes of Culex pipiens pallens; experiment: Mosquito-repellent incense mosquito-killing efficacy, sealed drum apparatus (GB/T13917.4-2009); settings: for KT50: mosquito-repellent incense W1-W5, active ingredient 0.04 w/w %, incense burnt 1 min, 20 female Culex pipiens pallens
Protocol: 99.96 parts by weight of a mixture consisting of corn starch, carbon powder and wood powder (1:5:4) were added with 120 parts by mass of water, kneaded into shape, and then dried to form a mosquito-repellent incense substrate (with a diameter of 12.0 cm, a thickness of 4 mm, and a pair weighing 40 g).
On the other hand, a 0.4 w/v % solution of compound 1 in kerosene was prepared. The set of incense substrate was uniformly spray-coated with 4 ml of the above solution using a microsyringe, and then left to dry at room temperature for 3 h to obtain a set of mosquito-repellent incense W1 containing 0.04 w/w % compound 1.
Similarly, compounds 2-3 of the present invention shown in Table 1, as well as Momfluorothrin and tetramethylfluthrin were prepared respectively to obtain corresponding mosquito-repellent incenses W2 to W5.
The mosquito-repellent incenses W2 to W5 were measured and compared in terms of mosquito-killing efficacy in accordance with GB/T13917.4-2009. […] The specific process was as follows: sucking 20 test mosquitoes with a mosquito suction tube, placing them into a sealed drum apparatus, taking a section of mosquito-repellent incense to be tested and placing it on an incense holder, lighting the incense and starting timing, removing the mosquito-repellent incense after 1 min, and recording the number of test mosquitos knocked down at regular intervals.

Flies = experiment: Insecticidal aerosol efficacy, sealed drum apparatus (GB/T13917.2-2009), flies; settings: 1 g sprayed; for Mortality rate: aerosol 0.3% active ingredient, 24 h; for KT50: aerosol containing 0.3% active ingredient
Protocol: (§1) 0.3 parts by weight of compound 1 with 59.7 parts by weight of kerosene were heated and evenly mixed to prepare an insecticide. The resulting preparation was placed in an aerosol can equipped with a valve, through which 40.0 parts by weight of propane and butane were injected underpressure, to obtain an insecticidal aerosol containing 0.3% compound 1.
(§2) The insecticidal aerosol was tested for efficacy on mosquitoes, flies, and German cockroaches in accordance with GB/T13917.2-2009, using a sealed drum apparatus. The specific process was as follows: placing the test insects into a tank, and after the test insects resumed normal activities, quantitatively spraying 1 g of the agent from the insecticidal aerosol can, pulling out the baffle after 1 min to make the test insects in contact with the agent, immediately starting timing and recording the number of the test insects knocked down at regular intervals, transferring all the test insects to a clean insect rearing cage after 20 min, and checking the number of dead insects after 24 h, wherein the German cockroaches were tested for 72-h mortality rate.
(§3) The aerosols of compounds 1-3, Momflurothrin and tetramethylfluthrin were prepared according to Test Example 2, and were tested for efficacy.

Mosquitoes = experiment: Insecticidal aerosol efficacy, sealed drum apparatus (GB/T13917.2-2009), mosquitoes; settings: for Mortality rate: aerosol 0.3% active ingredient, 24 h; for Mortality rate / KT50: 1 g sprayed, mosquitoes; for KT50: aerosol containing 0.3% active ingredient
Protocol: as §1, §2, §3

German cockroaches = experiment: Insecticidal aerosol efficacy, sealed drum apparatus (GB/T13917.2-2009), German cockroaches; settings: 1 g sprayed; for Mortality rate: aerosol 0.3% active ingredient, 72 h; for KT50: aerosol containing 0.3% active ingredient
Protocol: as §1, §2, §3

[2] = Rat acute dermal toxicity; settings: in vivo, topical or ocular, read-out: rat acute dermal toxicity median lethal dose (LD50)
rat [3] = experiment: Rat acute dermal toxicity
Rat acute oral toxicity = settings: in vivo, read-out: rat acute oral toxicity median lethal dose (LD50)
rat [4] = experiment: Rat acute oral toxicity

| SMILES | KT50 [1] [min] | Mortality rate (Flies) [%] | KT50 (Flies) [min] | Mortality rate (Mosquitoes) [%] | KT50 (Mosquitoes) [min] | Mortality rate (German cockroaches) [%] | KT50 (German cockroaches) [min] | LD50 [2] [mg/kg] | acute dermal toxicity classification (rat [3]) | LD50 (Rat acute oral toxicity) [mg/kg] | acute oral toxicity classification (rat [4]) | activity as mosquito-repellent incense ([1]; as mosquito-repellent incense) | knockdown activity against mosquitoes (Mosquitoes; as an aerosol in a cylindrical container) |
| --- | --- | --- | --- | --- | --- | --- | --- | --- | --- | --- | --- | --- | --- |
| CC1(C)C(/C=C\C#N)C1C(=O)OCc1c(F)c(F)cc(F)c1F (centres unmarked) [Compound 3, 2,3,5,6-tetrafluorobenzyl (Z)-3(2-cyanovinyl)-2,2-dimethylcyclopropanecarboxylate] | 4.65 | 100 | 3.45 | 100 | 2.45 | 95 | 5.52 | > 5000 | slightly toxic | > 5000 | slightly toxic | – | – |
| COCc1c(F)c(F)c(COC(=O)C2C(/C=C(/C)C#N)C2(C)C)c(F)c1F (centres unmarked) [Momfluorothrin, reference compound] | 27.87 | 70 | 15.28 | 100 | 12.35 | 60 | 17.56 | – | – | – | – | relatively poor activity | good knockdown activity |
| CC1(C)C(/C=C\C#N)C1C(=O)OCc1c(F)ccc(F)c1F (centres unmarked) [Compound 2, 2,3,6-trifluorobenzyl (Z)-3-(2-cyanovinyl)-2,2-dimethylcyclopropanecarboxylate] | 5.42 | 100 | 4.65 | 100 | 3.58 | 90 | 6.26 | – | – | – | – | – | – |
| COCc1c(F)c(F)c(COC(=O)C2C(C)(C)C2(C)C)c(F)c1F [tetramethylfluthrin, reference compound] | 9.23 | 80 | 8.56 | 100 | 6.46 | 65 | 9.12 | – | – | – | – | – | – |
| CC1(C)C(/C=C\C#N)C1C(=O)OCc1cc(F)cc(F)c1F (centres unmarked) [Compound 1, 2,3,5-trifluorobenzyl (Z)-3-(2-cyanovinyl)-2,2-dimethylcyclopropanecarboxylate] | 2.45 | 100 | 2.32 | 100 | 1.33 | 95 | 4.05 | – | – | – | – | – | – |

— US20250313526A1, “PYRETHROID COMPOUND CONTAINING DOUBLE BONDS AND CYANO GROUPS, SYNTHESIS METHOD THEREFOR, AND APPLICATION THEREOF” (Jiangsu Yangnong Chemical Co., Ltd., priority 2022, published 2025)
